From ChEMBL document CHEMBL4229534, “Amelioration of mechanism-based inactivation of CYP3A4 by a H-PGDS inhibitor” (Bioorg Med Chem Lett, 2018)
pIC50: −log10 of the molar value.

Assays:
Cytochrome P450 3A4 [1] = biological target: T1, Cytochrome P450 3A4 (Homo sapiens, UniProt P08684); test: Mechanism based inactivation of CYP3A4 in human liver microsomes assessed as apparent partition ratio by measuring ratio of number of inactivator molecules that get metabolized to number of enzyme molecules inactivated using testosterone as substrate; assay type: ADME
Cytochrome P450 3A4 [2] = biological target: T1, Cytochrome P450 3A4; test: Mechanism based inactivation of CYP3A4 in human liver microsomes assessed as apparent partition ratio by measuring ratio of number of inactivator molecules that get metabolized to number of enzyme molecules inactivated using midazolam as substrate; assay type: ADME
CYP3A4 [3] = biological target: T2, CYP3A4 (Homo sapiens, UniProt P08684); test: Inhibition of CYP3A4 in human liver microsomes assessed as residual activity using midazolam as substrate relative to control; assay type: ADME; design: concentration or dose not given beside the values; conditions: probe midazolam
CYP3A4 [4] = biological target: T2, CYP3A4; test: Inhibition of CYP3A4 in human liver microsomes assessed as residual activity using testosterone as substrate relative to control; assay type: ADME; design: concentration or dose not given beside the values; conditions: probe testosterone
[5] = biological target: Hematopoietic prostaglandin D synthase (Homo sapiens, UniProt O60760); test: Inhibition of HPGDS (unknown origin)
CYP3A4 [6] = biological target: T2, CYP3A4; test: (§1) Inhibition of recombinant human CYP3A4 assessed as residual activity using midazolam as substrate relative to control; assay type: ADME; conditions: recombinant human CYP3A4, probe midazolam
Cytochrome P450 3A4 [7] = biological target: T1, Cytochrome P450 3A4; test: Mechanism based inactivation of recombinant human CYP3A4 assessed as apparent partition ratio by measuring ratio of number of inactivator molecules that get metabolized to number of enzyme molecules inactivated using testosterone as substrate; assay type: ADME
Cytochrome P450 3A4 [8] = biological target: T1, Cytochrome P450 3A4; test: Mechanism based inactivation of recombinant human CYP3A4 assessed as apparent partition ratio by measuring ratio of number of inactivator molecules that get metabolized to number of enzyme molecules inactivated using midazolam as substrate; assay type: ADME
CYP3A4 [9] = biological target: T2, CYP3A4; test: (§2) Inhibition of recombinant human CYP3A4 assessed as residual activity using testosterone as substrate relative to control; assay type: ADME; conditions: recombinant human CYP3A4, probe testosterone
Cytochrome P450 3A4 [10] = biological target: T1, Cytochrome P450 3A4; test: as §1; assay type: ADME; conditions: recombinant enzyme
Cytochrome P450 3A4 [11] = biological target: T1, Cytochrome P450 3A4; test: as §2; assay type: ADME; conditions: recombinant enzyme

T1 sequence (P08684 whole entry): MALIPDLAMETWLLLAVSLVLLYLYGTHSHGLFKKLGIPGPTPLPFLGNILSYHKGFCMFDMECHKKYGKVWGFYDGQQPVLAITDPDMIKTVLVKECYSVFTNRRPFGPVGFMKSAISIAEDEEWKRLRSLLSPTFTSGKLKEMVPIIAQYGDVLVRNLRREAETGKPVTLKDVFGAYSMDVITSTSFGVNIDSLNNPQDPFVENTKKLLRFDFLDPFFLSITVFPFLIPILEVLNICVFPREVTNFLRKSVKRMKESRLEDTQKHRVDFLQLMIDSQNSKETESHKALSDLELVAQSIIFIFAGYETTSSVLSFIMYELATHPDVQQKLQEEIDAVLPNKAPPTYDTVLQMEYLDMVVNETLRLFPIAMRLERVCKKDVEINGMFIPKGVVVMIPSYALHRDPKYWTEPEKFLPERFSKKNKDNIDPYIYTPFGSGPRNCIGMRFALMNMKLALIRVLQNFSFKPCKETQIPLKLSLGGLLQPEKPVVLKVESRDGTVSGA
T2 sequence (P08684 whole entry): as above
Sequence of Hematopoietic prostaglandin D synthase (O60760 whole entry): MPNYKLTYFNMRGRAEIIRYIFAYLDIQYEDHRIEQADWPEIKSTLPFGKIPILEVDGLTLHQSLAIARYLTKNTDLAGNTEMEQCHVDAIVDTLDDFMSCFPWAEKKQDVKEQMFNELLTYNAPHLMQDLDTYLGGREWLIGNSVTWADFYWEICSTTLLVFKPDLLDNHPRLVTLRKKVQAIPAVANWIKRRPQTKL

| SMILES | Ratio (Cytochrome P450 3A4 [1]) | Ratio (Cytochrome P450 3A4 [2]) | activity (CYP3A4 [3]) [%] | activity (CYP3A4 [4]) [%] | pIC50 [5] | activity (CYP3A4 [6]) [%] | Ratio (Cytochrome P450 3A4 [7]) | Ratio (Cytochrome P450 3A4 [8]) | activity (CYP3A4 [9]) [%] | activity (Cytochrome P450 3A4 [10]) | activity (Cytochrome P450 3A4 [11]) |
| --- | --- | --- | --- | --- | --- | --- | --- | --- | --- | --- | --- |
| Cc1nc(-c2ccccn2)ncc1C(=O)Nn1ccc2c(C(F)(F)F)cccc21 |  |  | 100 | 91 | 8.00 | 57 | 842 | 1119 | 59 |  |  |
| CNS(=O)(=O)c1cccc(CNC(=O)c2cnc(-c3cccc(F)c3)nc2C)c1 |  |  |  |  | 8.02 |  |  |  |  |  |  |
| CC(C)(CO)NS(=O)(=O)c1cccc(CNC(=O)c2cnc(-c3cccc(F)c3)nc2)c1 |  |  |  |  | 7.64 |  |  |  |  |  |  |
| Cc1nc(-c2ncccn2)ncc1C(=O)Nn1ccc2c(C(F)(F)F)cccc21 |  |  | 95 | 90 | 8.10 |  |  |  |  | Not Active | Not Active |

More lines, now with the values ahead:

| Ratio (Cytochrome P450 3A4 [1]) | Ratio (Cytochrome P450 3A4 [2]) | activity (CYP3A4 [3]) [%] | activity (CYP3A4 [4]) [%] | pIC50 [5] | activity (CYP3A4 [6]) [%] | Ratio (Cytochrome P450 3A4 [7]) | Ratio (Cytochrome P450 3A4 [8]) | activity (CYP3A4 [9]) [%] | activity (Cytochrome P450 3A4 [10]) | activity (Cytochrome P450 3A4 [11]) | SMILES |
| --- | --- | --- | --- | --- | --- | --- | --- | --- | --- | --- | --- |
| 160 to 167 | 170 to 173 | 30 | 20 |  |  |  |  |  |  |  | Cc1nc(-c2ccccn2)ncc1C(=O)Nn1cc(C)c2cc(F)ccc21 |
|  |  | 79 | 91 | 8.22 |  |  |  |  |  |  | Cc1nc(-c2ccccn2)ncc1C(=O)Nn1cc(C)c2nc(F)ccc21 |
|  | 338 | 57 | > 70 | 8.52 | 19 | 460 | 326 | 22 |  |  | COc1ccc2c(n1)c(C)cn2NC(=O)c1cnc(-c2ccccn2)nc1C |
